Test results from patent publication US5770617A, “Terbenzimidazoles useful as antifungal agents” (Rutgers, The State University of New Jersey, priority 1997, dated 1998).

Assays:
[1] = test system: CPT-K5 (camptothecin-resistant variant of RPMI 8402); test: MTT cytotoxicity assay, CPT-K5; assay type: cell-based, human
Method: The cytotoxicity was determined using the as MTT-microtiter plate tetrazolinium cytotoxicity assay (MTA) following the procedures of F. Denizot et al., J. Immunol. Methods, 89, 271 (1986); J. Carmichael et al., Cancer Res, 47, 936 (1987) and T. J. Mosmann et al., Immunol. Methods, 65, 55 (1983). The human lymphoblast RPMI 8402 and its camptothecin-resistant variant cell line, CPT-K5 were provided by Dr. Toshiwo Andoh (Aichi Cancer Center Research Institute, Nagoya, Japan). See, for example, T. Andoh et al., Adv. Pharmacol., 29B, 93 (1994). The cytotoxicity assay was performed using 96-well microtiter plates. Cells were grown in suspension at 37 ° C. in 5% CO2 and maintained by regular passage in RPMI medium supplemented with 10% heat inactivated fetal bovine serum, L-glutamine (2 mM), penicillin (100 U/ml), and streptomycin (0.1 mg/ml). For determination of IC50, cells were exposed continuously with varying concentrations of drug concentrations and MTT assays were performed at the end of the fourth day.

[2] = target: T1, Aspergillus topoisomerase I (Aspergillus nidulans, UniProt Q5BGS7); test: Covalent transfer of 32P radioactivity from DNA to topoisomerase I (phosphate-transfer); assay type: biochemical; conditions: for phosphate transfer to 105 kDa Aspergillus topoisomerase I: Ho33342 1 mM
T1 construct: about 105 kDa by phosphate transfer
T1 sequence (Q5BGS7 1-871): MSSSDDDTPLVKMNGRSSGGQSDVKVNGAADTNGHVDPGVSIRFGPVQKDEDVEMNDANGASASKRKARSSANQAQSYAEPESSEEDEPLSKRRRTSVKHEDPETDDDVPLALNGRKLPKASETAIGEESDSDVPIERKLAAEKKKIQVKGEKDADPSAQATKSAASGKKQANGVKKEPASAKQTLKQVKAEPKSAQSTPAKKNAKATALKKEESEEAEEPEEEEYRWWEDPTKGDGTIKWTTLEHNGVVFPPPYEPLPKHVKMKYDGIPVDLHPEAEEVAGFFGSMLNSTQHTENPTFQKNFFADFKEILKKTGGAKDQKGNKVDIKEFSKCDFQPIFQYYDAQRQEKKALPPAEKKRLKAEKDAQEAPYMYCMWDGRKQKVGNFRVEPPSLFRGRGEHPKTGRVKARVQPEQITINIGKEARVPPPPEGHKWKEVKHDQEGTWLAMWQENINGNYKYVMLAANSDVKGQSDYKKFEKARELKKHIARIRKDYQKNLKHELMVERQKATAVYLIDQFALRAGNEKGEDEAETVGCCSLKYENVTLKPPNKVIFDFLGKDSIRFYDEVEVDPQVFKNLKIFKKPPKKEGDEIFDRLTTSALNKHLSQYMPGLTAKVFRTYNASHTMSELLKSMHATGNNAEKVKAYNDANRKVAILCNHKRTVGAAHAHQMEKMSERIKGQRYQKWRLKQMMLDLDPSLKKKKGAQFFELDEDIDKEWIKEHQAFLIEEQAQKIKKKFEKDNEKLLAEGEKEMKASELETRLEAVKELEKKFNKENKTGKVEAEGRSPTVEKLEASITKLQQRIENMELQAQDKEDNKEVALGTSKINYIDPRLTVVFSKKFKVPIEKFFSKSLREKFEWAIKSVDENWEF
Method: This phosphate-transfer method was a modification of the procedure described previously by T. C. Rowe et al., J. Biol. Chem., 259, 9177 (1984). Briefly, a 100-μl reaction mixture containing 10 mM Tris-HCl, pH 7.5, 1 mM MgCl2, 0.5 mM dithiothreitol, 30 μg/ml of bovine serum albumin, drug (camptothecin or Hoechst 33342) at an indicated concentration, 50 ng of YEpG DNA labeled with ^32 PdATP by the random primer method (Random Primed Labeling Kit, Boehringer Mannheim), and 300 units of human or Aspergillus topoisomerase I, was incubated at 37° C. for 10 minutes. The reactions were terminated by adding NaOH to 0.18M and EDTA to 2.5 mM. After neutralizing the reaction with a precalibrated amount of Tris-HCl, 9 μl of 0.1M CaCl2 and 7.5 μl of 20% SDS were added, and the volume was adjusted to 300 μl with H2 O.
Five units of Bal31 nuclease (New England, BioLabs) were added, and the sample was digested for 1 hour at 25° C. The reaction was terminated by extraction with 1 volume of phenol. The phenol phase was saved and back-extracted once with an equal volume of 10 mM Tris-HCl, pH 8.0, 1 mM EDTA. The protein-oligonucleotide complexes were then precipitated from the phenol phase by adding 10 volumes of ice-cold acetone and placing on ice for 10 minutes. The pellet was dissolved in SDS sample buffer and analyzed by SDS-PAGE. Gel drying and autoradiography were done as described (Hsiang et al., J. Biol. Chem., 260, 14873 (1985)).

| Structure (SMILES) | effect against camptothecin-resistant CPT-K5 cells, in words [1] | phosphate transfer to 105 kDa Aspergillus topoisomerase I [2] | phosphate transfer at higher concentrations ([2]; higher concentrations of Ho33342) |
| --- | --- | --- | --- |
| c1ccc(-c2ccc3[nH]c(-c4ccc5[nH]c(-c6ccc7[nH]cnc7c6)nc5c4)nc3c2)cc1 [Compound 13, 5-Phenyl-2-[2'(benzimidazol-5"-yl)benzimidazol-5'-yl]benzimidazole] | effective | – | – |
| CCOc1ccc(-c2nc3cc(-c4nc5cc(N6CCN(C)CC6)ccc5[nH]4)ccc3[nH]2)cc1 [Hoechst 33342, 2'-(4-ethoxyphenyl)-5-(4-methyl-1-piperazinyl)-2,5'-bi-1H-benzimidazole] | effective | stimulated the phosphate transfer | progressively inhibited |
| CC[C@@]1(O)C(=O)OCc2c1cc1n(c2=O)Cc2cc3ccccc3nc2-1 [camptothecin] | – | stimulated the phosphate transfer | – |
